The values that follow are results of earlier work, collected in patent US20110033536A1, “24-HOUR SUSTAINED-RELEASE METOCLOPRAMIDE” (POSIVISIONARY SOLUTIONS LLP, priority 2008, published 2011).

`CCN(CC)CCNC(=O)c1cc(Cl)c(N)cc1OC` [metoclopramide]: the “Plasma concentrations at which undesirable side effects (akathisia) are present” value (literature (Bateman 1979; Parlak 2005)) is given as “above 100 nanograms per milliliter”. The “Plasma concentrations related to extrapyramidal effects (akathisia)” value (relationship stated as determined, no own test) is on record as “above 120 ng/ml”.
